In patent publication US20060263802A1 (priority 2003, published 2006):
Entries after “also recorded” stand apart in the source; their conditions may differ.

Legend:
Format in all cases: binding
[1] = tested on: human monoclonal antibody CRJB
[2] = tested on: human monoclonal antibody CR57
[3] = tested on: human monoclonal antibody CRJA
[4] = tested on: human monoclonal antibody CRJB; remark: listed apart in the source
[5] = tested on: human monoclonal antibody CR57; remark: listed apart in the source
[6] = tested on: human monoclonal antibody CRJA; remark: listed apart in the source

Row | Sequence | Binding of CRJB to linear peptide (PEPSCAN-ELISA signal) [1] | Binding of CR57 to linear peptide (PEPSCAN-ELISA signal) [2] | Binding of CRJA to linear peptide (PEPSCAN-ELISA signal) [3] | Binding of CRJB (10 μg/ml) to looped/cyclic peptide (PEPSCAN-ELISA signal) [4] | binding of antibody CRJB to looped/cyclic peptide (PEPSCAN OD) [4] | Binding of CR57 (10 μg/ml) to looped/cyclic peptide (PEPSCAN-ELISA signal) [5] | binding of antibody CR57 to looped/cyclic peptide (PEPSCAN OD) [5] | Binding of CRJA (10 μg/ml) to looped/cyclic peptide (PEPSCAN-ELISA signal) [6] | Binding of CRJB (10 μg/ml) to looped/cyclic peptide (PEPSCAN-ELISA) [4] | Binding of CR57 (10 μg/ml) to looped/cyclic peptide (PEPSCAN-ELISA) [5] | Binding of CRJA (10 μg/ml) to looped/cyclic peptide (PEPSCAN-ELISA) [6] | binding of antibody CRJA to looped/cyclic peptide (PEPSCAN OD) [6] | binding of antibody CRJB to linear peptide (PEPSCAN OD) [1] | binding of antibody CR57 to linear peptide (PEPSCAN OD) [2] | binding of antibody CRJA to linear peptide (PEPSCAN OD) [3]
1 | WMPENPRLGMSCDIF | 113 | 88 | 97 | 206 | display reactivity; also recorded: clearly bound | 199 | clearly bound | 164 | – | – | – | – | – | – | –
2 | WNEILPSKGCLRVGG | 136 | 102 | 98 | – | – | – | – | – | 98 | 112 | 96 | – | – | – | –
3 | WSPIDIHHLSCPNNL | 106 | 80 | 83 | 92 | – | 89 | – | 151 | – | – | – | – | – | – | –
4 | YCSTNHDYTIWMPEN | 92 | 47 | 76 | 71 | – | 65 | – | 468 | – | – | – | clearly bound | – | – | –
5 | YDRSLHSRVFPSGKC | 818 | 364 | 1027 | 72 | – | 112 | – | 86 | – | – | – | – | clearly bound | bound | clearly bound
6 | YEESLHNPYPDYRWL | 106 | 58 | 87 | 50 | – | 98 | – | 84 | – | – | – | – | – | – | –
7 | YILAIKMNGFTCTGV | 107 | 47 | 45 | 49 | – | 55 | – | 45 | – | – | – | – | – | – | –
8 | YKSLKGACKLKLCGV | 112 | 80 | 79 | – | – | – | – | – | 82 | 96 | 71 | – | – | – | –
9 | YKSVRTWNEILPSKG | 137 | 66 | 113 | – | – | – | – | – | 94 | 117 | 132 | – | – | – | –
10 | YMELKVGYILAIKMN | 114 | 78 | 96 | 83 | – | 93 | – | 76 | – | – | – | – | – | – | –
11 | YNWKMAGDPRYEESL | 118 | 83 | 110 | 89 | – | 89 | – | 98 | – | – | – | – | – | – | –
12 | YPDYRWLRTVKTTKE | 97 | 72 | 88 | 73 | – | 88 | – | 92 | – | – | – | – | – | – | –
13 | YRWLRTVKTTKESLV | 117 | 46 | 68 | 70 | – | 69 | – | 58 | – | – | – | – | – | – | –
14 | YTIFNKTLMEADAHY | 147 | 104 | 90 | – | – | – | – | – | 79 | 119 | 108 | – | – | – | –
15 | YTILDKLGPWSPIDI | 114 | 48 | 93 | 73 | – | 75 | – | 91 | – | – | – | – | – | – | –
16 | YTIWMPENPRLGMSC | 132 | 97 | 111 | 132 | – | 191 | clearly bound | 93 | – | – | – | – | – | – | –
17 | YTNFVGYVTTTFKRK | 104 | 51 | 76 | 90 | – | 71 | – | 72 | – | – | – | – | – | – | –
18 | YVTTTFKRKHFRPTP | 106 | 85 | 84 | 111 | – | 146 | – | 137 | – | – | – | – | – | – | –
